Test results as given in ChEMBL document CHEMBL1201862, “PubChem BioAssay data set” (2004).
Active and inactive are the calls of the source.

Columns and labels:
[1] = off-target signal loss in HeLa-CEM21 co-culture – HeLa F-luc CTL cells, cherry-picked, counter-screen for HIV-1 Env fusion inhibitor project, dose response (AID 652040); format: functional, cell-based;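 note: potency for signal decrease marking cytotoxic or nonspecific inhibition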
[2] = viability loss in CEM21 cells – cell-based, CellTiter-Glo luminescence, cherry-picked, cytotoxicity control for viral fusion inhibitor project, dose response (AID 652042); format: functional;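 note: potency for signal decrease meaning cytotoxicity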
[3] = target: COUP transcription factor 2 (Homo sapiens, UniProt P24468); assay: Luminescence-based cell-based high throughput dose response assay to identify inhibitors of COUP-TFII (NR2F2).; format: functional;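 note: HEK293 cells transiently cotransfected with COUP-TFII expression vector and reporter; luciferase reporter luminescence driven by COUP-TFII from the pX2-168 reporter plasmid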
COUP transcription factor 2, sequence (P24468 whole entry, the tested form may be a part): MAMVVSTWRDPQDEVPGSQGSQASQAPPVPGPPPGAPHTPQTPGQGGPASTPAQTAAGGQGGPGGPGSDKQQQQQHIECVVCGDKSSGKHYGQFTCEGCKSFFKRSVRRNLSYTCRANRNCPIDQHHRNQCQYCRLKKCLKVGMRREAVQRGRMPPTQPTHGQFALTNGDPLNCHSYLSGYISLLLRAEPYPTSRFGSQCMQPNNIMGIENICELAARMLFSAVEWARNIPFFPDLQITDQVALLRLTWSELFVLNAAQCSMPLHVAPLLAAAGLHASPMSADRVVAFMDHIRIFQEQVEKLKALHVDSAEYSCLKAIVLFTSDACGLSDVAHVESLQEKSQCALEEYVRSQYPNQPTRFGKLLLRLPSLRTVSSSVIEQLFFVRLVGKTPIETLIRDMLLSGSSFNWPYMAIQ

[4] = HIV-1 AD8 envelope cell-cell fusion blockers – cherry-pick, dose response (AID 652062); format: functional, cell-based;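 note: luciferase signal from cell-cell fusion driven by HIV-1 clade B AD8 Env; potency is for inhibitors of fusion seen as a drop in luminescence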
[5] = cells
[6] = target: Major prion protein (Homo sapiens, UniProt P04156); format: functional, cell-based
[7] = target: T1, Protein RecA (Mycobacterium tuberculosis, UniProt P9WHJ3); assay: Fluorescence Cell-Free Homogeneous Dose Retest to Identify Inhibitors of RecA-Intein Splicing Activity. [Related pubchem assays (depositor defined):AID2097, AID2223, AID489010, AID492950]; format: functional
T1 sequence (P9WHJ3 whole entry): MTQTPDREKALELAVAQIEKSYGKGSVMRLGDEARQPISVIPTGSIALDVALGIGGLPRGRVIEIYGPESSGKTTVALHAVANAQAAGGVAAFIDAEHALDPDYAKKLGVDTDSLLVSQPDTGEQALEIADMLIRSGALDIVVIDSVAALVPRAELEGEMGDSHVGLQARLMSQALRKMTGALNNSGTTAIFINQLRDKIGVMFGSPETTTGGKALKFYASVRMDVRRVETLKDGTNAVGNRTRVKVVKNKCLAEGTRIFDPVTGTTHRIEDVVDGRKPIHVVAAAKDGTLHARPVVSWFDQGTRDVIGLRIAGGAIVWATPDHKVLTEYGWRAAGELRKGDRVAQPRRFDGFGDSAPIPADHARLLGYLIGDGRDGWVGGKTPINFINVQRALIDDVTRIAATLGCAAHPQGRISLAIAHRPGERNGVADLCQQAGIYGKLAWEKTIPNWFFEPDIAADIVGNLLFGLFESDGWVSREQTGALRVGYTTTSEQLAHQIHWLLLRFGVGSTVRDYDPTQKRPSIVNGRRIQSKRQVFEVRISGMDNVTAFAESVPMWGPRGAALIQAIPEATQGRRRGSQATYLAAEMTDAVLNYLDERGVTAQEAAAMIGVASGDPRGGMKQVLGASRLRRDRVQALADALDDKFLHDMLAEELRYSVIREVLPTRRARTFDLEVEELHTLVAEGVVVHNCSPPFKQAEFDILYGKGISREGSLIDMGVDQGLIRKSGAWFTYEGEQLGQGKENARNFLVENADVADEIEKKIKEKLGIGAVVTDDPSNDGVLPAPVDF

[8] = target: T2, Replicative DNA helicase DnaB (Mycobacterium tuberculosis, UniProt P9WMR3); assay: DnaB intein splicing inhibitors, dose response, biochemical, cell-free fluorescence (AID 449749); format: functional
T2 sequence (P9WMR3 whole entry): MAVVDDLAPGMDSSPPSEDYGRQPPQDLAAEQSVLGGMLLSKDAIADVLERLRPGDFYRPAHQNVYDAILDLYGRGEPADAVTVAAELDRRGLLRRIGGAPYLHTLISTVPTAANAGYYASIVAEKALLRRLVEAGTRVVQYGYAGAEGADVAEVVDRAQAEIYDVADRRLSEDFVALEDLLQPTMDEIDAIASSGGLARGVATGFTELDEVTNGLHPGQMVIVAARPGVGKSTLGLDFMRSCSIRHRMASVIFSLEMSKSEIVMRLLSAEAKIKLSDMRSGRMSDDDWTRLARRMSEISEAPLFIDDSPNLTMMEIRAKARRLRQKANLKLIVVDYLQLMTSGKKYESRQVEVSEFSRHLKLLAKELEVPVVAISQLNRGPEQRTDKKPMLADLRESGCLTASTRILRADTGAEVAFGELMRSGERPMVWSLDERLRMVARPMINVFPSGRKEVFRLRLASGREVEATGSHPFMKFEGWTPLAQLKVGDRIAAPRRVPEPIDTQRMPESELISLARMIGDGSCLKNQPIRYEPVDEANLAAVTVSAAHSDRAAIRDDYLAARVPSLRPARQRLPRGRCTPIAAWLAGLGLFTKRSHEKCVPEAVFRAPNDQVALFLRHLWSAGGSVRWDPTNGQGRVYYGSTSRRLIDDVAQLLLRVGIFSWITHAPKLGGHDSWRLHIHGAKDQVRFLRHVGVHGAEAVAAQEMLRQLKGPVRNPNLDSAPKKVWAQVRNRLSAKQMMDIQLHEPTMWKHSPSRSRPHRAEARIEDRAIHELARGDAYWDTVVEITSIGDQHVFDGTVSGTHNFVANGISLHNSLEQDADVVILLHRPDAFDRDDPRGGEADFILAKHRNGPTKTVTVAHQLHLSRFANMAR

[9] = target: T3, Sentrin-specific protease 8 (Homo sapiens, UniProt Q96LD8); format: functional
T3 sequence (Q96LD8 whole entry): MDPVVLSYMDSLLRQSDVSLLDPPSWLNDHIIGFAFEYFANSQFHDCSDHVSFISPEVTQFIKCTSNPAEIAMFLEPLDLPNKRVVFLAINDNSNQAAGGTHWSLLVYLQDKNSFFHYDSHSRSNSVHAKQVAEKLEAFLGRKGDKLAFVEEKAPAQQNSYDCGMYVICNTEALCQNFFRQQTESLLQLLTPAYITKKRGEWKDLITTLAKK

[10] = target: T3, Sentrin-specific protease 8; format: functional; remark: listed apart in the source
[11] = cells; format: functional, cell-based
[12] = target: T4, Heat shock factor protein 1 (Mus musculus, UniProt P38532); assay: enhancement of HSF1-driven luciferase signal – cell-based, NIH3T3, luminescence, dose retest, confirmation (AID 435004); format: functional;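 note: stress induced by proteasome inhibitor MG132 added 30 min after compound; luciferase reporter driven by HSF1 response element in NIH3T3 cells; actives raise luminescence as potentiators of the MG132 stress response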
T4 sequence (P38532 whole entry): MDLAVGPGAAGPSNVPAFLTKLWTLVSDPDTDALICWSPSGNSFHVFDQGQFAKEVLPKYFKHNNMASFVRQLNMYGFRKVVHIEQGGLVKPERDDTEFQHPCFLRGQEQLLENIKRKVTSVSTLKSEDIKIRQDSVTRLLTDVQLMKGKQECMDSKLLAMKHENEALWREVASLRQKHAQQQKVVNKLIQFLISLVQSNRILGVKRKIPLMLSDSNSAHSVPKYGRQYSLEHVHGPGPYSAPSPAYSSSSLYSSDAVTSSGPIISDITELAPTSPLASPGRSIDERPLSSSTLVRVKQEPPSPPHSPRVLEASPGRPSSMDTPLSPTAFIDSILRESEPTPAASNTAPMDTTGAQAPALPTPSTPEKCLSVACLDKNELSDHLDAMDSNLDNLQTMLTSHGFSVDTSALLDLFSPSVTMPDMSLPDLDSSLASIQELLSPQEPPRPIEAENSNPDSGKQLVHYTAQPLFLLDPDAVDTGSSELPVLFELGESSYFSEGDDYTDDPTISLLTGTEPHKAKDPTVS

[13] = target: T5, Trace amine-associated receptor 1 (Homo sapiens, UniProt Q96RJ0); assay: Fluorescence-based cell-based high throughput dose response assay to identify agonists of the human trace amine associated receptor 1 (TAAR1).; format: functional
T5 sequence (Q96RJ0 whole entry): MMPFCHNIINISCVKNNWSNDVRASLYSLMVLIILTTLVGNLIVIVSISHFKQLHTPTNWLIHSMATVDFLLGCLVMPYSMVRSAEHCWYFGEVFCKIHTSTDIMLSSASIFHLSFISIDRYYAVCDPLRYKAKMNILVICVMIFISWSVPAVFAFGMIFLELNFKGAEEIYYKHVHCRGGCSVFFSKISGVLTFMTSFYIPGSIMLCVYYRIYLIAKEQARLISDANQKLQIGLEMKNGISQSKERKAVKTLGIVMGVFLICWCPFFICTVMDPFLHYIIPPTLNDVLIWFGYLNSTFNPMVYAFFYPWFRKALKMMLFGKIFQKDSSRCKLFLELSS

[14] = target: T5, Trace amine-associated receptor 1; assay: Counterscreen for agonists of the human trace amine associated receptor 1 (hTAAR1): Fluorescence-based cell-based high throughput dose response assay to identify hTAAR1 agonist that also desensitize TAAR1 receptor response.; format: functional
[15] = cells; format: functional, cell-based; remark: listed apart in the source
[16] = target: Disintegrin and metalloproteinase domain-containing protein 17 (Homo sapiens, UniProt P78536); assay: exosite inhibitors of ADAM17, dose response, biochemical (AID 743260)
Disintegrin and metalloproteinase domain-containing protein 17, sequence (P78536 whole entry, the tested form may be a part): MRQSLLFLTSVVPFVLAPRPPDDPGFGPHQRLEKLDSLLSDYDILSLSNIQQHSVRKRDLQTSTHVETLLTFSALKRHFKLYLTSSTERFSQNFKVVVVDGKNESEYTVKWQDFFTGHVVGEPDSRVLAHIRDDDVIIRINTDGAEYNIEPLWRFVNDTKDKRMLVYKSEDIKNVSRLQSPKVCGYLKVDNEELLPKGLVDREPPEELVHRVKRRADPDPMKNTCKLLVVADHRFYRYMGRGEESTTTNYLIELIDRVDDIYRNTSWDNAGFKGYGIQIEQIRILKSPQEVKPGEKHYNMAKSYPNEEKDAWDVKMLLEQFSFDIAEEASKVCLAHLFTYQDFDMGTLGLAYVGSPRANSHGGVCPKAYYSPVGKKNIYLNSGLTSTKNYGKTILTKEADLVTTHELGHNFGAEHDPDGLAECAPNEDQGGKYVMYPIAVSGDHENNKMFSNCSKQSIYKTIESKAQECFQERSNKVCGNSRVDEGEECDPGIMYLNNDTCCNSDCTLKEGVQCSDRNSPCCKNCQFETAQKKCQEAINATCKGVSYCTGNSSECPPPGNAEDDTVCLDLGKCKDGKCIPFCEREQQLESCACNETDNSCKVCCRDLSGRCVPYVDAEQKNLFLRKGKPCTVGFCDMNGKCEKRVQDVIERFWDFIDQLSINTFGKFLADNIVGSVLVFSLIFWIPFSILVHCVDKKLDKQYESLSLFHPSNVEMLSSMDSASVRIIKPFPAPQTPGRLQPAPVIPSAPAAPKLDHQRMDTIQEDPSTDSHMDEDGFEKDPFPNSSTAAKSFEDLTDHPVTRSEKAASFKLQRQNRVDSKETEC

[17] = inhibition of ADAM10 peptide cleavage – biochemical, FRET peptide substrate, recombinant human ADAM10, selectivity assay for ADAM17 exosite inhibitor project, dose response (AID 743259);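 note: ADAM10 enzyme cleaving a FRET peptide substrate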
[18] = target: Albumin (Bos taurus, UniProt P02769); assay: Counterscreen for inhibitors of T-cell receptor (TCR)-CD3 interaction: Fluorescence-based biochemical high throughput dose response assay to identify inhibitors of T-cell receptor (TCR)-CD3 interaction using a TAMRA-labeled BSA probe.; format: functional
Albumin, sequence (P02769 whole entry): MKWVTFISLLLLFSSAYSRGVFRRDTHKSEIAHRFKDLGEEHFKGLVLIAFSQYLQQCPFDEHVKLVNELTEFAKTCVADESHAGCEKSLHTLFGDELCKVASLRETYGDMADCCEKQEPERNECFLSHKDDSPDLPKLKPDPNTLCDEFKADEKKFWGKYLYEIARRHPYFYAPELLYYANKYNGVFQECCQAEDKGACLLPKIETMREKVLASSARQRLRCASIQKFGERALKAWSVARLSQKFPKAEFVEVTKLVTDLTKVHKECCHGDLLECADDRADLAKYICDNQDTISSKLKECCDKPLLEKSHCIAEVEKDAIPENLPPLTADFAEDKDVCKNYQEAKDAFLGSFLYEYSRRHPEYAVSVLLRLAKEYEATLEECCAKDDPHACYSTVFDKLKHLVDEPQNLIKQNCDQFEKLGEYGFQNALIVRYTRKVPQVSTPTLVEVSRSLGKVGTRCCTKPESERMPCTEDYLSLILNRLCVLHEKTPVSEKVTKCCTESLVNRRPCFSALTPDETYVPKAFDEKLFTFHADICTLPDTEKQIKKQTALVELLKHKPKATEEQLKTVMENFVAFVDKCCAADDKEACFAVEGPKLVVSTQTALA

[19] = target: FAD-linked sulfhydryl oxidase ALR (Homo sapiens, UniProt P55789); assay: ALR-catalysed DTT oxidation blockers – biochemical, H2O2 detection, luminescence, cherry-pick, dose response (AID 493248)
FAD-linked sulfhydryl oxidase ALR, sequence (P55789 whole entry): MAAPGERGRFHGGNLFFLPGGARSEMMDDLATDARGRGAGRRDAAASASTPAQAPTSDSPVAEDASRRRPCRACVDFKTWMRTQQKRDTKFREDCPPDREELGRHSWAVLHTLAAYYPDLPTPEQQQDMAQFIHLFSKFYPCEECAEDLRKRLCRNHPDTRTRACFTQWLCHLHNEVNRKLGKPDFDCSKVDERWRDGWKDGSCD

[20] = T. cruzi growth inhibition in host cells, dose response, cell-based, plate reader, dry powder, set 2 (AID 652275); format: functional

For `N#CCSc1nnc(-c2sc3ccccc3c2Cl)o1`, the AC50 [1] was > 70 µM (inactive), the AC50 [2] was 46.4 µM (active) and the IC50 [3] was 12 µM (inactive). For the same compound, the AC50 [4] was 6.32 µM (active).

In the case of `COc1ccc(C(=O)NNC(=O)CSc2nc(C(C)C)nc3ccccc23)cc1`, the IC50 [5] is reported as > 138 µM (inactive) and the IC50 [6] is reported as 1.98 µM (active).

For `CC1=NN(c2ccc(S(=O)(=O)O)cc2C)C(=O)C1`, the EC50 [7] was 4.57 µM (active), the AC50 [8] was 3.99 µM (active) and the IC50 [9] was 28 µM (active). The IC50 [10] was 21.8 µM (active).

In the case of `Cc1c(CNCCc2ccccc2)c(C(=O)O)c(C)n1-c1ccccc1`, the EC50 [11] is reported as > 29.9 µM (inactive), the EC50 [12] is reported as > 260 µM (inactive) and the EC50 [13] is reported as 1.78 µM (active). For the same compound, the IC50 [14] was 8.17 µM (active) and the IC50 [15] was > 29.9 µM (inactive).

In the case of `Cc1nn(Cc2ccccc2Cl)c2sc(C(=O)NCc3ccc4c(c3)OCO4)cc12`, the IC50 [16] is reported as > 69.5 µM (inactive) and the IC50 [17] is reported as > 69.5 µM (inactive).

For `COC(=O)c1cc(O)c(O)c(O)c1` [GALLIC ACID METHYL ESTER], the IC50 [18] was > 94.3 µM (inactive) and the AC50 [19] was 4.94 µM (active).

For `O=c1[nH]c(=O)n(Cc2ccco2)c2c1C(C(F)(F)F)(C(F)(F)F)NC(CCc1ccccc1)=N2`, the IC50 [5] was 54.4 µM (inactive) and the IC50 [6] was 8.51 µM (active).

For `CN(C)C(=O)c1cccc(-c2ccc([C@H]3[C@@H](CO)N4CCCCN(C(=O)C5CCCC5)C[C@@H]34)cc2)c1`, the AC50 [20] was 0.691 µM (active).
